The target in one assay is T1, SGLT2 (Homo sapiens, UniProt P31639).
T1 construct: expressed in transfected cells
T1 sequence (P31639 1-672): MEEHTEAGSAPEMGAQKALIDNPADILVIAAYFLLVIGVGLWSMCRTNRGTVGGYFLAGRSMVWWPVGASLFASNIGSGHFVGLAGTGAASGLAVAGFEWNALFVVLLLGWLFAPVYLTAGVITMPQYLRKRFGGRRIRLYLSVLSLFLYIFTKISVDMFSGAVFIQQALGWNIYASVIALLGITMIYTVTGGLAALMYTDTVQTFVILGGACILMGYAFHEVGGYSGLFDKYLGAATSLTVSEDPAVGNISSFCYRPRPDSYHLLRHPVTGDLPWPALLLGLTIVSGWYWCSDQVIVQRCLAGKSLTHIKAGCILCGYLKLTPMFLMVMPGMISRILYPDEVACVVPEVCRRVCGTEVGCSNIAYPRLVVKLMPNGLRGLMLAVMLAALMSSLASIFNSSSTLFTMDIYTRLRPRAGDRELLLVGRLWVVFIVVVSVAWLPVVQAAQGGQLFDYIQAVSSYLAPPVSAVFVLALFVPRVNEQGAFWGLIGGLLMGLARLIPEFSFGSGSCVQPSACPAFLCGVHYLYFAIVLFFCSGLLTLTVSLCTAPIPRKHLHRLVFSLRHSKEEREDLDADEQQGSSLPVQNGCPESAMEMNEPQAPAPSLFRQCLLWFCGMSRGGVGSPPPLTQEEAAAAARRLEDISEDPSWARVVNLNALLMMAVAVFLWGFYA
Briefly: SGLT2 activity measurement: 14C-AMG uptake in BHK cells transfected with SGLT2. In kind it is cell-based. The note with it: AMG 2 mM, 37° C., 90 min. An outline of the steps: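 BHK21 cells stably expressing human SGLT2 took up 14C-AMG (added as 2 mM solution) ± compound for 90 min at 37 °C in Na+-containing HEPES/Tris buffer, pH 7.4. Uptake was measured by scintillation counting after lysis. Non-specific uptake was defined in sodium-free sucrose buffer.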

A further assay concerns the target T2, SGLT1 (Homo sapiens, UniProt P13866).
T2 construct: expressed in transfected cells
T2 sequence (P13866 1-664): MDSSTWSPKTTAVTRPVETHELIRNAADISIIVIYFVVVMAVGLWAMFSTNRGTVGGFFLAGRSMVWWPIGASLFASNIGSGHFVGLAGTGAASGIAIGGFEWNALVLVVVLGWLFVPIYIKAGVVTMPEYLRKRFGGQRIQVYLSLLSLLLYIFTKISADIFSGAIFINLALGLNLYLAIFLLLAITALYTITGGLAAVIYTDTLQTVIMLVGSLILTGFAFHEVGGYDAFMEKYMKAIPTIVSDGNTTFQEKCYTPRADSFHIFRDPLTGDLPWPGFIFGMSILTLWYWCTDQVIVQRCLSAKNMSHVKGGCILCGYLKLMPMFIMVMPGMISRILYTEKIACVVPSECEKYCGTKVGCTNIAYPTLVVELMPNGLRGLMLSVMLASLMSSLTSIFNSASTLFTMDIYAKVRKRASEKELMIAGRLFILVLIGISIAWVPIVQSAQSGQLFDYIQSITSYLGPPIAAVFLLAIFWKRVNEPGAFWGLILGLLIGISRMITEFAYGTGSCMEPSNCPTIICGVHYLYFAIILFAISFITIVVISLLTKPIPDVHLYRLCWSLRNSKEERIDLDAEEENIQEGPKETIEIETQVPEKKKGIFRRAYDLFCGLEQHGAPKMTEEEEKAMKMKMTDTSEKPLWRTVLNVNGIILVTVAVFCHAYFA
Briefly: SGLT1 activity measurement: 14C-AMG uptake in BHK cells transfected with SGLT1. The class given is cell-based. The settings on record: AMG 50 μM, 37° C., 90 min. An outline of the steps:
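BHK21 cells stably transfected with human SLC5A1 were incubated with 14C-AMG (added solution at 50 μM) ± compound for 90 min at 37 °C. The buffer was 140 mM NaCl, HEPES/Tris, pH 7.4. Lysed-cell radioactivity was counted by scintillation, and non-specific uptake was measured in sodium-free sucrose buffer.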

pIC50: −log10 of the molar value.

The term pIC50 denotes the IC50 on a negative log10 scale, so that one unit is a factor of ten. Read a high pIC50 as a small IC50. In the case of `CCc1cc(OC)cc(OCC(N)=O)c1-c1nc2c(F)cc(F)cn2c1Nc1c(C)cc(F)cc1C` [Compound A255, 2-[2-(Aminocarbonylmethoxy)-4-methoxy-6-ethylphenyl]-3-(2,6-dimethyl-4-fluorophenyl-amino)-6,8-difluoroimidazo[1,2-a]pyridine], the pIC50 against SGLT2 was 6.00 to 8.00; on SGLT1 it was 5.00 to 6.00.

In the case of `COc1cc(C)c(-c2nc3ccc(F)cn3c2Nc2c(C)ccc(Cl)c2C)c(OCC(N)=O)c1` [Compound A218, 2-[2-(Aminocarbonylmethoxy)-4-methoxy-6-methylphenyl]-3-(3-chloro-2,6-dimethylphenyl-amino)-6-fluoroimidazo[1,2-a]pyridine], the negative logarithm of the IC50 (pIC50) against SGLT2 was 6.00 to 8.00; at SGLT1 it was 5.00 to 6.00.
